The values that follow come from patent US11505558B1, “Antiviral heterocyclic compounds” (Enanta Pharmaceuticals, Inc., priority 2019, dated 2022).

Assay [1] relates to genotype A, "Long" strain RSV. The assay is described as follows: RSV-A assay (CPE, ATPlite readout in Hep-2 cells). The format is cell-based. Particulars: human respiratory syncytial virus. In outline:
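Protection from RSV-induced cytopathic effect, measured as ATPlite luminescence after 5 days, gave EC50 values. Assay used genotype A Long strain at MOI 0.1 on Hep-2 cells seeded at 8,000/well in DMEM growth media with 10% FBS; compounds tested as 2-fold dilutions in duplicate.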

Assay [2] deals with recombinant HMPV CAN97-83 (MPV-GFP1). The assay is described as follows: HMPV antiviral assay (MPV-GFP1 eGFP fluorescence in Vero E6 cells). The format is cell-based. Particulars: human metapneumovirus, Vero C1008, 120 h, read-out: HMPV EC50. In outline:
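Vero E6 cells in serum-free OptiMEM with 0.5 μg/mL TPCK-trypsin infected with eGFP-expressing HMPV CAN97-83 (MPV-GFP1) at MOI 0.05. 8-point […] ½-step dilutions from 8 or 2 μM, 0.5% DMSO, 5 days at 32 °C. eGFP fluorescence normalized to infected untreated wells; EC50 from four-parameter logistic fit.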

Where [3] appears, read: HEp-2, Hep-2 cells, genotype A "Long" strain RSV, MOI 0.1, read-out: Human RSV-A (“Long” strain) EC50.

Where two headings read alike, the source gives them in different places. Some results are limits rather than exact numbers.

As usually defined, the EC50 is the concentration at which the effect is half-maximal. Consider `C[C@]1(C(=O)NCCCNC(N)=O)COc2c1cc([C@@](O)(CNC(=O)c1cc(OC3CC3)c3ncccc3c1)C(F)(F)F)nc2-c1ccc(F)cc1` [Example 479], for which the EC50 in assay [1] (setting [3]) was less than 0.2 µM; in assay [2], greater than 0.5 µM.
As for `CC(C)(CO)NC(=O)[C@@]1(C)COc2c1cc([C@@](O)(CNC(=O)c1cc(OC3CC3)c3ncccc3c1)C(F)(F)F)nc2-c1ccc(F)cc1` [Example 482], the EC50 in assay [1] (setting [3]) was less than 0.2 µM; in assay [2] it was greater than 0.5 µM.
Take `CC(C)(O)CNC(=O)[C@@]1(C)COc2c1cc([C@@](O)(CNC(=O)c1cc(OC3CC3)c3ncccc3c1)C(F)(F)F)nc2-c1ccc(F)cc1` [Example 484]: the EC50 in assay [1] (setting [3]) was less than 0.2 µM; in assay [2], less than 0.5 µM.
Regarding `C[C@]1(C(=O)NCCCO)COc2c1cc([C@@](O)(CNC(=O)c1cc(OC3CC3)c3ncccc3c1)C(F)(F)F)nc2-c1ccc(F)cc1` [Example 485], the results for the half-maximal effective concentration (EC50) in assay [1] (setting [3]) and in assay [2] were less than 0.2 µM and less than 0.5 µM, respectively.
The corresponding values for `C[C@]1(C(=O)NC[C@@H](O)CO)COc2c1cc([C@@](O)(CNC(=O)c1cc(OC3CC3)c3ncccc3c1)C(F)(F)F)nc2-c1ccc(F)cc1` [Example 492] are less than 0.2 µM and greater than 0.5 µM.
Take `C[C@]1(C(=O)NC[C@H](O)CO)COc2c1cc([C@@](O)(CNC(=O)c1cc(OC3CC3)c3ncccc3c1)C(F)(F)F)nc2-c1ccc(F)cc1` [Example 493]: the EC50 in assay [1] (setting [3]) is less than 0.2 µM; in assay [2] it was greater than 0.5 µM.
Take `CC(C)(O)CNC(=O)[C@@]1(C)COc2c1cc([C@@](O)(CNC(=O)c1ccc3nc(N)sc3c1)C(F)(F)F)nc2-c1ccc(F)cc1` [Example 497]: the values for the EC50 in assay [1] (setting [3]) and in assay [2] were less than 0.2 µM and greater than 0.5 µM, respectively.
The corresponding values for `COc1cc(C(=O)NC[C@](O)(c2cc3c(c(-c4ccc(F)cc4)n2)OC[C@]3(C)C(N)=O)C(F)(F)F)cc2c1OCCC2` [Example 508] are greater than 0.2 µM and less than 0.5 µM.
The corresponding values for `COc1cc(C(=O)NC[C@](O)(c2cc3c(c(-c4ccc(F)cc4)n2)OC[C@]3(C)C(N)=O)C(F)(F)F)cc2cc(F)cnc12` [Example 518] are less than 0.2 µM and greater than 0.5 µM.
On the same counts, the results for `COc1cc(C(=O)NC[C@](O)(c2cc3c(c(-c4ccc(F)cc4)n2)OC[C@]3(C)C(N)=O)C(F)(F)F)cc2cc(C3CC3)cnc12` [Example 519] are less than 0.2 µM and less than 0.5 µM.
In the case of `COc1cc(C(=O)NC[C@](O)(c2cc3c(c(-c4ccc(F)cc4)n2)OC[C@]3(C)C(N)=O)C(F)(F)F)cc2cc(Cl)cnc12` [Example 520], the EC50 is less than 0.2 µM in assay [1] (setting [3]) and less than 0.5 µM in assay [2].
The corresponding values for `C[C@]1(C(N)=O)COc2c1cc([C@@](O)(CNC(=O)c1cc(OC3CC3)c3ncc(Cl)cc3c1)C(F)(F)F)nc2-c1ccc(F)cc1` [Example 521] are less than 0.2 µM and less than 0.5 µM.
On the same counts, the results for `COc1cc(C(=O)NC[C@](O)(c2cc3c(c(-c4ccc(F)cc4)n2)OC[C@]3(C)C(N)=O)C2CC2)cc2cc(C3CC3)cnc12` [Example 522] are less than 0.2 µM and less than 0.5 µM.
The corresponding values for `COc1cc(C(=O)NC[C@](O)(c2cc3c(c(-c4ccc(F)c(Cl)c4)n2)OC[C@]3(C)C(N)=O)C2CC2)cc2cc(C3CC3)cnc12` [Example 523] are less than 0.2 µM and less than 0.5 µM.
On to `Cc1cnc2ccc(C(=O)NC[C@](O)(c3cc4c(c(-c5ccc(F)cc5)n3)OC[C@]4(C)C(N)=O)C(F)(F)F)cc2c1` [Example 524], for which the EC50 in assay [1] (setting [3]) was less than 0.2 µM; in assay [2], less than 0.5 µM.
The corresponding values for `C[C@]1(C(N)=O)COc2c1cc([C@@](O)(CNC(=O)c1ccc3ncc(Cl)cc3c1)C(F)(F)F)nc2-c1ccc(F)cc1` [Example 526] are less than 0.2 µM and less than 0.5 µM.
The corresponding values for `C[C@]1(C(N)=O)COc2c1cc([C@@](O)(CNC(=O)c1ccc3ncc(F)cc3c1)C(F)(F)F)nc2-c1ccc(F)cc1` [Example 527] are less than 0.2 µM and greater than 0.5 µM.
As to `COc1cc(C(=O)NC[C@](O)(c2cc3c(c(-c4ccc(F)cc4)n2)OC[C@]3(C)C(N)=O)C2CC2)cc2cc(Cl)cnc12` [Example 528], the EC50 in assay [1] (setting [3]) is less than 0.2 µM; in assay [2], less than 0.5 µM.
The corresponding values for `COc1cc(C(=O)NC[C@](O)(c2cc3c(c(-c4ccc(F)c(Cl)c4)n2)OC[C@]3(C)C(N)=O)C2CC2)cc2cc(Cl)cnc12` [Example 529] are less than 0.2 µM and less than 0.5 µM.
The corresponding values for `C[C@]1(C(N)=O)COc2c1cc([C@@](O)(CNC(=O)c1cc(OC3CC3)c3ncc(Cl)cc3c1)C1CC1)nc2-c1ccc(F)cc1` [Example 530] are less than 0.2 µM and less than 0.5 µM.
On to `C[C@]1(C(N)=O)COc2c1cc([C@@](O)(CNC(=O)c1cc(OC3CC3)c3ncc(Cl)cc3c1)C1CC1)nc2-c1ccc(F)c(Cl)c1` [Example 531], for which the EC50 in assay [1] (setting [3]) is less than 0.2 µM; in assay [2], less than 0.5 µM.
For the molecule `COc1cc(C(=O)NC[C@](O)(c2cc3c(c(-c4ccc(F)c(Cl)c4)n2)OC[C@]3(C)C(N)=O)C(F)(F)F)cc2cc(C3CC3)cnc12` [Example 532], the EC50 in assay [1] (setting [3]) is less than 0.2 µM; in assay [2], less than 0.5 µM.
The corresponding values for `COc1cc(C(=O)NC[C@](O)(c2cc3c(c(-c4ccc(F)cc4)n2)OC[C@]3(C)C(N)=O)C(F)(F)F)cc2cc(C)c(C)nc12` [Example 533] are less than 0.2 µM and less than 0.5 µM.
The corresponding values for `COc1cc(C(=O)NC[C@](O)(c2cc3c(c(-c4ccc(F)c(Cl)c4)n2)OC[C@]3(C)C(N)=O)C(F)(F)F)cc2cc(C)c(C)nc12` [Example 534] are less than 0.2 µM and less than 0.5 µM.
The corresponding values for `COc1cc(C(=O)NC[C@](O)(c2cc3c(c(-c4ccc(F)cc4)n2)OC[C@]3(C)C(N)=O)C2CC2)cc2cc(C(F)(F)F)cnc12` [Example 535] are less than 0.2 µM and less than 0.5 µM.
As for `COc1cc(C(=O)NC[C@](O)(c2cc3c(c(-c4ccc(F)c(Cl)c4)n2)OC[C@]3(C)C(N)=O)C2CC2)cc2cc(C(F)(F)F)cnc12` [Example 536], the EC50 in assay [1] (setting [3]) was less than 0.2 µM; in assay [2], less than 0.5 µM.
On to `C[C@]1(C(N)=O)COc2c1cc([C@@](O)(CNC(=O)c1cc(OC(F)F)c3nc(N)sc3c1)C(F)(F)F)nc2-c1ccc(F)cc1` [Example 537], for which the EC50 in assay [1] (setting [3]) was less than 0.2 µM; in assay [2], greater than 0.5 µM.
Turning to `CC(C)Oc1cc(C(=O)NC[C@](O)(c2cc3c(c(-c4ccc(F)cc4)n2)OC[C@]3(C)C(N)=O)C(F)(F)F)cc2sc(N)nc12` [Example 538], the half-maximal effective concentration (EC50) in assay [1] (setting [3]) was less than 0.2 µM; in assay [2], greater than 0.5 µM.
On the same counts, the results for `C[C@]1(C(N)=O)COc2c1cc([C@@](O)(CNC(=O)c1cc(OC(F)F)c3nc(N)sc3c1)C1CC1)nc2-c1ccc(F)cc1` [Example 539] are less than 0.2 µM and less than 0.5 µM.
Take `C[C@]1(C(N)=O)COc2c1cc([C@@](O)(CNC(=O)c1cc(OC(F)F)c3nc(N)sc3c1)C1CC1)nc2-c1ccc(F)c(Cl)c1` [Example 540]: the EC50 was less than 0.2 µM in assay [1] (setting [3]) and less than 0.5 µM in assay [2].
On the same counts, the results for `C[C@]1(C(N)=O)COc2c1cc([C@@](O)(CNC(=O)c1cc(OC(F)(F)F)c3nc(N)sc3c1)C(F)(F)F)nc2-c1ccc(F)cc1` [Example 541] are less than 0.2 µM and greater than 0.5 µM.
On the same counts, the results for `C[C@]1(C(N)=O)COc2c1cc([C@@](O)(CNC(=O)c1cc(OC(F)(F)F)c3nc(N)sc3c1)C(F)(F)F)nc2-c1ccc(F)c(Cl)c1` [Example 542] are less than 0.2 µM and less than 0.5 µM.
Take `C[C@]1(C(N)=O)COc2c1cc([C@@](O)(CNC(=O)c1cc(OC3CC3)c3nc(N)sc3c1)C(F)(F)F)nc2-c1ccc(F)cc1` [Example 543]: the values for the EC50 in assay [1] (setting [3]) and in assay [2] were less than 0.2 µM and less than 0.5 µM, respectively.
The corresponding values for `C[C@]1(C(N)=O)COc2c1cc([C@@](O)(CNC(=O)c1cc(OC3CC3)c3nc(N)sc3c1)C(F)(F)F)nc2-c1ccc(F)c(Cl)c1` [Example 544] are less than 0.2 µM and less than 0.5 µM.
On the same counts, the results for `Cc1cnc2c(Nc3cnccn3)cc(C(=O)NC[C@](O)(c3cc4c(c(-c5ccc(F)cc5)n3)OC[C@]4(C)C(N)=O)C(F)(F)F)cc2c1` [Example 547] are less than 0.2 µM and greater than 0.5 µM.
The corresponding values for `Cc1cnc2c(Nc3cncnc3)cc(C(=O)NC[C@](O)(c3cc4c(c(-c5ccc(F)cc5)n3)OC[C@]4(C)C(N)=O)C(F)(F)F)cc2c1` [Example 548] are less than 0.2 µM and greater than 0.5 µM.
Turning to `Cc1cnc2c(OC(=O)NC3(C)COC3)cc(C(=O)NC[C@](O)(c3cc4c(c(-c5ccc(F)cc5)n3)OC[C@]4(C)C(N)=O)C(F)(F)F)cc2c1` [Example 549], the EC50 in assay [1] (HEp-2, read-out: Human RSV-A (“Long” strain) EC50) was less than 0.2 µM; in assay [2], greater than 0.5 µM.
On to `Cc1cnc2c(NC(=O)NC3(C)CC3)cc(C(=O)NC[C@](O)(c3cc4c(c(-c5ccc(F)cc5)n3)OC[C@]4(C)C(N)=O)C(F)(F)F)cc2c1` [Example 550], for which the EC50 in assay [1] (setting [3]) was less than 0.2 µM; in assay [2], less than 0.5 µM.
Turning to `Cc1cnc2c(NC(=O)NCC(C)(C)O)cc(C(=O)NC[C@](O)(c3cc4c(c(-c5ccc(F)cc5)n3)OC[C@]4(C)C(N)=O)C(F)(F)F)cc2c1` [Example 551], the half-maximal effective concentration (EC50) in assay [1] (setting [3]) was less than 0.2 µM; in assay [2], greater than 0.5 µM.
Regarding `Cc1cnc2c(NC(=O)C3(C)CC3)cc(C(=O)NC[C@](O)(c3cc4c(c(-c5ccc(F)cc5)n3)OC[C@]4(C)C(N)=O)C(F)(F)F)cc2c1` [Example 552], the values for the EC50 in assay [1] (setting [3]) and in assay [2] were less than 0.2 µM and less than 0.5 µM, respectively.
